Results as given in paper PMC11062906 (Nature, 2024).

Experiments:
BmGr9 [1] = biological target: T1, BmGr9 (Bombyx mori, UniProt B3GTD7); test: Cell-based GCaMP calcium flux assay, wild-type BmGr9; details: 100 mM sweet compound, HEK293 cells with BmGr9 plus GCaMP vs GCaMP only
BmGr9 [2] = biological target: T1, BmGr9; test: Intrinsic tryptophan fluorescence of detergent-solubilized purified BmGr9; type: binding; details: titration of purified BmGr9
[3] = biological target: Bombyx mori gustatory receptor Gr9 (BmGr9) (Bombyx mori) (UniProt B3GTD7); test: native gel or EMSA; Coomassie-stained denaturing and native gels of purified BmGr9; effective molecular weight approximately 700 kDa including detergent micelle

T1 sequence (B3GTD7 entry or part of it): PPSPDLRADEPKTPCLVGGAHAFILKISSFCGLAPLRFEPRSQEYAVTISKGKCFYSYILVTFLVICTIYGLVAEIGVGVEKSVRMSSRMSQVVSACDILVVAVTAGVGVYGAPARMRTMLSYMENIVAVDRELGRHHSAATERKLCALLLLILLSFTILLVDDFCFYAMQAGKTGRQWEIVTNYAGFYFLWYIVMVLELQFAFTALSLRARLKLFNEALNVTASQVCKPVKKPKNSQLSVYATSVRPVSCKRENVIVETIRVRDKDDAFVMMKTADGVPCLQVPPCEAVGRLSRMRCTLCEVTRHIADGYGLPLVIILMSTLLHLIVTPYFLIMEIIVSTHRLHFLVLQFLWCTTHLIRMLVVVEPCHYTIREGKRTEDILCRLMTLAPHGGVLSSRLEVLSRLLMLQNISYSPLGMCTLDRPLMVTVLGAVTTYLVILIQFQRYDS

OC[C@H]1O[C@H](O[C@]2(CCl)O[C@H](CCl)[C@@H](O)[C@@H]2O)[C@H](O)[C@@H](O)[C@H]1Cl [sucralose]
Activation of BmGr9 (change in fluorescence) by sweet compound (BmGr9 [1]): significantly different activity

OC[C@H]1O[C@@](CO)(O[C@H]2O[C@H](CO)[C@@H](O)[C@H](O)[C@H]2O)[C@@H](O)[C@@H]1O [sucrose]
blue shift in the tryptophan fluorescence emission spectrum (BmGr9 [2]): did not induce a shift

Bombyx mori gustatory receptor Gr9 (BmGr9) (from UniProt B3GTD7 2-449)
stoichiometry N [3]: 4
